Measurements reported in patent US12594268B2, “Methods of treating Fabry disease in patients having a mutation in the GLA gene” (Amicus Therapeutics, Inc., priority 2018, dated 2026).
Where a chain is given by its changes, count along the chain named.

Legend:
Format in all cases: cell-based
[1] = molecular target: T1, α-Gal A mutant form P380L (Homo sapiens, UniProt P06280, P380L); assay: α-Gal A activity in lysates of transfected HEK-293 cells, P380L
T1 construct: expressed in transfected cells; host or cells: HEK-293
T1 sequence (P06280 32-429 P380L): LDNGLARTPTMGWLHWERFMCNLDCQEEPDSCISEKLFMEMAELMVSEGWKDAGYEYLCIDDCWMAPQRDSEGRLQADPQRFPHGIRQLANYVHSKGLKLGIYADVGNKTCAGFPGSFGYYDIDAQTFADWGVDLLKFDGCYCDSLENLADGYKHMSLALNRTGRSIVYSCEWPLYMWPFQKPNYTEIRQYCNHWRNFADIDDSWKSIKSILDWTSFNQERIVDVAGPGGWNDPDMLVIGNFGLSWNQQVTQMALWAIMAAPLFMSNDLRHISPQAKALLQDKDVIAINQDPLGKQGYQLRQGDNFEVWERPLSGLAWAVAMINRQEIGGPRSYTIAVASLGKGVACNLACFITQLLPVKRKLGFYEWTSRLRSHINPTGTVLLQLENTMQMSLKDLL
Protocol: (§1) Baseline and 10 μM migalastat α-Gal A activity: Differences in the α-Gal A activity between lysates incubated in the absence and presence of 10 μM migalastat were determined using a one-tailed, Mann Whitney U test; an increase at 10 μM migalastat with a p<0.05 was considered significant.
(§2) 10 μM migalastat α-Gal A activity (% WT)=(α-Gal A activity in mutant transfected cell lysates incubated with 10 μM migalastat÷α-Gal A activity in wild-type transfected cell lysates without migalastat)*100.
(§3) Absolute increase (% WT)=is the 10 μM migalastat α-Gal A activity (% WT) minus the baseline α-Gal A activity (% WT).
(§4) Relative increase is the 10 μM migalastat α-Gal A activity in mutant transfected cell lysates÷baseline α-Gal A activity in mutant transfected cell lysates incubated without migalastat.

α-Gal A mutant form M96V = molecular target: T2, α-Gal A mutant form M96V (Homo sapiens, UniProt P06280, M96V); assay: α-Gal A activity in lysates of transfected HEK-293 cells, M96V
T2 construct: expressed in transfected cells; host or cells: HEK-293
T2 sequence (P06280 32-429 M96V): T1 sequence (P06280 32-429 P380L) with M65V, L349P
Protocol: as §1, §2, §3, §4

[2] = molecular target: T3, α-Gal A mutant form W204G (Homo sapiens, UniProt P06280, W204G); assay: α-Gal A activity in lysates of transfected HEK-293 cells, W204G
T3 construct: expressed in transfected cells; host or cells: HEK-293
T3 sequence (P06280 32-429 W204G): T1 sequence (P06280 32-429 P380L) with W173G, L349P
Protocol: as §1, §2, §3, §4

[3] = molecular target: T4, α-Gal A mutant form V339A (Homo sapiens, UniProt P06280, V339A); assay: α-Gal A activity in lysates of transfected HEK-293 cells, V339A
T4 construct: expressed in transfected cells; host or cells: HEK-293
T4 sequence (P06280 32-429 V339A): T1 sequence (P06280 32-429 P380L) with V308A, L349P
Protocol: as §1, §2, §3, §4

α-Gal A mutant form G80V = molecular target: T5, α-Gal A mutant form G80V (Homo sapiens, UniProt P06280, G80V); assay: α-Gal A activity in lysates of transfected HEK-293 cells, G80V
T5 construct: expressed in transfected cells; host or cells: HEK-293
T5 sequence (P06280 32-429 G80V): T1 sequence (P06280 32-429 P380L) with G49V, L349P
Protocol: as §1, §2, §3, §4

[4] = 10 μM migalastat minus baseline
[5] = 10 μM migalastat ÷ baseline activity
[6] = HEK-293 lysates, 10 μM migalastat, 5 days, mean ± SEM

Absolute increase (% WT) [1, 4]: 7.1 % WT | Relative increase [1, 5]: 2.98 | 10 μM migalastat α-Gal A activity [1, 6]: 4248 ± 369 nmol/mg/h | 10 μM migalastat α-Gal A activity (% WT) [1, 6]: 10.6 ± 1.0 % WT | Absolute increase (% WT) (α-Gal A mutant form M96V; [4]): 24.2 % WT | Relative increase (α-Gal A mutant form M96V; [5]): 2.68 | 10 μM migalastat α-Gal A activity (α-Gal A mutant form M96V; [6]): 14612 ± 1009 nmol/mg/h | 10 μM migalastat α-Gal A activity (% WT) (α-Gal A mutant form M96V; [6]): 38.1 ± 2.4 % WT | Absolute increase (% WT) ([2]; 10 μM migalastat minus baseline (baseline BLD)): 6.5 % WT | 10 nM migalastat α-Gal A activity ([2]; HEK-293 lysates, 10 nM migalastat as printed, 5 days, mean ± SEM, baseline BLD): 1695 ± 198 nmol/mg/h | 10 μM migalastat α-Gal A activity (% WT) [2, 6]: 6.5 ± 0.7 % WT | Absolute increase (% WT) [3, 4]: 16.8 % WT | Relative increase [3, 5]: 1.33 | 10 μM migalastat α-Gal A activity [3, 6]: 25174 ± 2895 nmol/mg/h | 10 μM migalastat α-Gal A activity (% WT) [3, 6]: 65.6 ± 4.2 % WT | Absolute increase (% WT) (α-Gal A mutant form G80V; [4]): 4.3 % WT | Relative increase (α-Gal A mutant form G80V; [5]): 3.18 | 10 μM migalastat α-Gal A activity (α-Gal A mutant form G80V; [6]): 2434 ± 333 nmol/mg/h | 10 μM migalastat α-Gal A activity (% WT) (α-Gal A mutant form G80V; [6]): 6.4 ± 0.6 % WT
Structure (SMILES): OC[C@H]1NC[C@H](O)[C@@H](O)[C@H]1O [migalastat, (2R,3S,4R,5S)-2-(hydroxymethyl) piperdine-3,4,5-triol]
